Measured values taken from ChEMBL document CHEMBL5465560, “Selectivity Literature for EUbOPEN Chemogenomic Library” (2024).

Key:
[1] = biological target: SRSF protein kinase 1 (Homo sapiens, UniProt Q96SB4); conditions: at 10 µM
[2] = biological target: Ribosomal protein S6 kinase alpha-5 (Homo sapiens) (UniProt O75582); experiment: Selectivity interaction (Millipore kinase profiler) EUB0000124b RPS6KA5; conditions: at 10 µM
[3] = biological target: T1, Serine/threonine-protein kinase tousled-like 1 (Homo sapiens) (UniProt Q9UKI8); experiment: Selectivity interaction (ActivX KiNativ screen (kinase selectivity in THP-1 cell lysates)) EUB0000639a TLK1; format: subcellular; conditions: lysate, at 0.2 µM
T1 sequence (whole entry): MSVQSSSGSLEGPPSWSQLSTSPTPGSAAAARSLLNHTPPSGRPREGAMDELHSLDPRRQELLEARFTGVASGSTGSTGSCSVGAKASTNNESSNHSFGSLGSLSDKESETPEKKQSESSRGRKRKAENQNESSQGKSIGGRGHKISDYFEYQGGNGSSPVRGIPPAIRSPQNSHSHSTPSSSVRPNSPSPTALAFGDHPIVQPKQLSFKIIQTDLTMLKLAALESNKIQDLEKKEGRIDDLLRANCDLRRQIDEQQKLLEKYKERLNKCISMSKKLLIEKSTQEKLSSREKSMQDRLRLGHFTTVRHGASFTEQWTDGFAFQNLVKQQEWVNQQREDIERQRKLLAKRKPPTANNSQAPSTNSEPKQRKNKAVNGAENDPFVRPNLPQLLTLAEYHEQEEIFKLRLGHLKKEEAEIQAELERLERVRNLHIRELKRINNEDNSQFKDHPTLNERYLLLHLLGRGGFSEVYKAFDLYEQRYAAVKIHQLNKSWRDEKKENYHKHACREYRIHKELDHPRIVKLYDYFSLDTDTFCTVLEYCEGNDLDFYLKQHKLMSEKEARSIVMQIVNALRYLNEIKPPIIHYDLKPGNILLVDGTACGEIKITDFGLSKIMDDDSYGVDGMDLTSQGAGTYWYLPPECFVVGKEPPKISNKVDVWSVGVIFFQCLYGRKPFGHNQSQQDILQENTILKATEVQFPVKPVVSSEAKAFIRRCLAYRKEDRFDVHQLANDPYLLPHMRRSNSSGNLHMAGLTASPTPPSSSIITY

[4] = biological target: Calcium/calmodulin-dependent protein kinase type 1 (Homo sapiens) (UniProt Q14012); experiment: Selectivity interaction (Adapta Assay) EUB0001632a CAMK1; conditions: at 10 µM
[5] = biological target: Serine/threonine-protein kinase SIK1 (Homo sapiens) (UniProt P57059); experiment: Selectivity interaction (KinomeScan (DiscoverX)) EUB0000695a SIK1; conditions: at 100 nM
[6] = biological target: T2, cGMP-dependent protein kinase 1 (Homo sapiens) (UniProt Q13976); experiment: Selectivity interaction (KinomeScan (DiscoverX)) EUB0000595a PRKG1; conditions: at 10 µM
T2 sequence (whole entry): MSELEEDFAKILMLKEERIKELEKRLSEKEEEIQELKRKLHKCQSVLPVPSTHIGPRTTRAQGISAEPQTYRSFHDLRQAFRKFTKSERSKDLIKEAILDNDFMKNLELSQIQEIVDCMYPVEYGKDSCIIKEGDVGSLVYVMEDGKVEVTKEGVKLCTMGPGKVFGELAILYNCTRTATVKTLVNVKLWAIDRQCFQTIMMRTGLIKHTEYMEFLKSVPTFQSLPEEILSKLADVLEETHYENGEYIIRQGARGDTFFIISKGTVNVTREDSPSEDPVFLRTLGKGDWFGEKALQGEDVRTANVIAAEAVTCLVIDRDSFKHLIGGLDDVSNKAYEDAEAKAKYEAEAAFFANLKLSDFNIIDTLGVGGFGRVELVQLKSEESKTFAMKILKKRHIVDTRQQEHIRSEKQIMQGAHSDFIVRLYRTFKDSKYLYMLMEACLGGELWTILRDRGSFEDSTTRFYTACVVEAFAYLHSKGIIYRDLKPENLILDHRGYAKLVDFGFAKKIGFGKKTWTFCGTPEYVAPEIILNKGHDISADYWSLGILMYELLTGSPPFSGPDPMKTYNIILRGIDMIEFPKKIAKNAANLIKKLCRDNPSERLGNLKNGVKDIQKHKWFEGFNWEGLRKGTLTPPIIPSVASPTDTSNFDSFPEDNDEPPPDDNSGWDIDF

[7] = test system: Leucine-rich repeat serine/threonine-protein kinase 2 (Homo sapiens), Q5S007 [G2019S]; experiment: (§1) Selectivity interaction (KinomeScan (DiscoverX)) EUB0000229b LRRK2; conditions: at 1 µM
[8] = biological target: Leucine-rich repeat serine/threonine-protein kinase 2 (Homo sapiens, UniProt Q5S007); experiment: as §1; conditions: at 10 µM
[9] = biological target: Tyrosine-protein kinase JAK2 (Homo sapiens, UniProt O60674); experiment: Selectivity interaction (KinomeScan (DiscoverX)) EUB0000092b JAK2; conditions: at 10 µM
Tyrosine-protein kinase JAK2, sequence (O60674 whole entry): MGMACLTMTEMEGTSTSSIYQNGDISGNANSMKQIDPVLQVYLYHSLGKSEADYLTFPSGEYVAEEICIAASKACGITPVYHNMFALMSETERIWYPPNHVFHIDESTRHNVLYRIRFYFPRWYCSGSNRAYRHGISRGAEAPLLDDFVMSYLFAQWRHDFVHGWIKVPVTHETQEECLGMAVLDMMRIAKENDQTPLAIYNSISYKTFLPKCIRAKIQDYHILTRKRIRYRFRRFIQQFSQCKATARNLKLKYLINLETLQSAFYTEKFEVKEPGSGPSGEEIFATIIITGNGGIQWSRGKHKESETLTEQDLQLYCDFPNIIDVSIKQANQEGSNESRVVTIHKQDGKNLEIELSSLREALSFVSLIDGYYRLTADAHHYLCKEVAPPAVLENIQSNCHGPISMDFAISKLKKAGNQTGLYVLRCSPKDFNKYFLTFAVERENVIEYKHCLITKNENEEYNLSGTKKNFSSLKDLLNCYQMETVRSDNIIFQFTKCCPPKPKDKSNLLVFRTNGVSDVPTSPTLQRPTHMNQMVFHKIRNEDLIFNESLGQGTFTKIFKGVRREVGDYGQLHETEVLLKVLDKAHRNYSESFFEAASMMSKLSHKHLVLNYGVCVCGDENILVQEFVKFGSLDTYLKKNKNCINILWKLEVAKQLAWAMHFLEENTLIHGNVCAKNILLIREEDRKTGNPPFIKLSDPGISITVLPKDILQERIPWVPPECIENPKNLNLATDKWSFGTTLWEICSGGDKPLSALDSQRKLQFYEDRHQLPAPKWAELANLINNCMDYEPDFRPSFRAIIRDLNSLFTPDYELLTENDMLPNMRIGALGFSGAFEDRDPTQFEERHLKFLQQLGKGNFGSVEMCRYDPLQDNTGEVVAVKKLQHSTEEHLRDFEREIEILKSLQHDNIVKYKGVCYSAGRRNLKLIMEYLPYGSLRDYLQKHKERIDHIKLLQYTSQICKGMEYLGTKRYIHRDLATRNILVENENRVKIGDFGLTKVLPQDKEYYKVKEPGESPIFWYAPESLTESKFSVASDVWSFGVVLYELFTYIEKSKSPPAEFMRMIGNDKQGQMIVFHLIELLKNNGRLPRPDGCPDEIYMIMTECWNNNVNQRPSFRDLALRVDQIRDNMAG

[10] = biological target: Mast/stem cell growth factor receptor Kit (Homo sapiens, UniProt P10721); experiment: Selectivity interaction (Kinase panel (Eurofins)) EUB0001564a KIT; conditions: at 1 µM
[11] = biological target: Histone-lysine N-methyltransferase 2A (Homo sapiens) (UniProt Q03164); experiment: Selectivity interaction (Human bromodomain panel (DSF assay)) EUB0000233b MLL
[12] = biological target: T3, Serine/threonine-protein kinase DCLK3 (Homo sapiens) (UniProt Q9C098); experiment: Selectivity interaction (KinomeScan (DiscoverX)) EUB0001619a DCLK3; conditions: at 1 µM
T3 sequence (whole entry): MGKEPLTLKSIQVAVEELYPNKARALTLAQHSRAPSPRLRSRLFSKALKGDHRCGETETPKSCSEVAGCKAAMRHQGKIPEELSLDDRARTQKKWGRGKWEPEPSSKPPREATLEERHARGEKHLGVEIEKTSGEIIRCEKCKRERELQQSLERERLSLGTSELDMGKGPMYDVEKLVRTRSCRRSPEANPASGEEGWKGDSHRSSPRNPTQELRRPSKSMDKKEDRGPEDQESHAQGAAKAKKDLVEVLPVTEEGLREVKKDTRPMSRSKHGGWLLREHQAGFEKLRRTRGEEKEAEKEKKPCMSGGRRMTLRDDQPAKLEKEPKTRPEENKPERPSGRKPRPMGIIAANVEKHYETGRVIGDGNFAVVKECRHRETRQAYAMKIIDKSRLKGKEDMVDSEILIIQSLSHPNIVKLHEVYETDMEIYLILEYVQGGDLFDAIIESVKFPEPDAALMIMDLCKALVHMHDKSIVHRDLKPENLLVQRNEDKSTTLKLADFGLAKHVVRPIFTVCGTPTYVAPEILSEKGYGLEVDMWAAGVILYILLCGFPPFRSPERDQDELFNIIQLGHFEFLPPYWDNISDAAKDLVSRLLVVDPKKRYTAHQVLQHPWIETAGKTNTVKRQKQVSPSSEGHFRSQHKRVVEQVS

[13] = biological target: Serine/threonine-protein kinase MARK1 (Homo sapiens) (UniProt Q9P0L2); experiment: Selectivity interaction (KinomeScan (DiscoverX)) EUB0000618a MARK1; conditions: at 10 µM
Serine/threonine-protein kinase MARK1 (Homo sapiens), sequence (Q9P0L2 whole entry, looked up): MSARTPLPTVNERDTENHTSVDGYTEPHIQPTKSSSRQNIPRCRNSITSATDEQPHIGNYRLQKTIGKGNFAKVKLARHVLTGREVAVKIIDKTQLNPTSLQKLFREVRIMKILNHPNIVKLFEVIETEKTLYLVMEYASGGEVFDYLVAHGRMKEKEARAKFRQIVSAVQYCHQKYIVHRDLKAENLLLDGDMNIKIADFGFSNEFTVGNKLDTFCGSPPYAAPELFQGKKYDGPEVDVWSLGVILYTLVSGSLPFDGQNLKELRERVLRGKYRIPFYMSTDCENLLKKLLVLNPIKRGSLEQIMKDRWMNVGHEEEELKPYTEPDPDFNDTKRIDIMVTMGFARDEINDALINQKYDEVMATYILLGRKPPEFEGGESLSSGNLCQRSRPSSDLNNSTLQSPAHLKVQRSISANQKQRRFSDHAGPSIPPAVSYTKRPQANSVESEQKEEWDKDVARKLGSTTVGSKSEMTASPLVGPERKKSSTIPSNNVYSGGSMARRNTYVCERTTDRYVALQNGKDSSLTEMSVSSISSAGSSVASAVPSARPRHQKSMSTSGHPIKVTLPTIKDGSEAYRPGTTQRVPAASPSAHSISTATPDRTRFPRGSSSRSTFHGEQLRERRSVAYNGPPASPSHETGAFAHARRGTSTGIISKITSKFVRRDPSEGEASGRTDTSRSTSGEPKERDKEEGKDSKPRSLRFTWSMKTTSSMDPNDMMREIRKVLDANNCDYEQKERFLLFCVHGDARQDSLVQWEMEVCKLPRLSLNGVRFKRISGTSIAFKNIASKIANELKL

[14] = biological target: Histone-lysine N-methyltransferase, H3 lysine-79 specific (Homo sapiens, UniProt Q8TEK3); experiment: Selectivity interaction (Methyltransferase screen (Scintillation proximity assays)) EUB0000255b DOT1L
Histone-lysine N-methyltransferase, H3 lysine-79 specific, sequence (Q8TEK3 whole entry, looked up): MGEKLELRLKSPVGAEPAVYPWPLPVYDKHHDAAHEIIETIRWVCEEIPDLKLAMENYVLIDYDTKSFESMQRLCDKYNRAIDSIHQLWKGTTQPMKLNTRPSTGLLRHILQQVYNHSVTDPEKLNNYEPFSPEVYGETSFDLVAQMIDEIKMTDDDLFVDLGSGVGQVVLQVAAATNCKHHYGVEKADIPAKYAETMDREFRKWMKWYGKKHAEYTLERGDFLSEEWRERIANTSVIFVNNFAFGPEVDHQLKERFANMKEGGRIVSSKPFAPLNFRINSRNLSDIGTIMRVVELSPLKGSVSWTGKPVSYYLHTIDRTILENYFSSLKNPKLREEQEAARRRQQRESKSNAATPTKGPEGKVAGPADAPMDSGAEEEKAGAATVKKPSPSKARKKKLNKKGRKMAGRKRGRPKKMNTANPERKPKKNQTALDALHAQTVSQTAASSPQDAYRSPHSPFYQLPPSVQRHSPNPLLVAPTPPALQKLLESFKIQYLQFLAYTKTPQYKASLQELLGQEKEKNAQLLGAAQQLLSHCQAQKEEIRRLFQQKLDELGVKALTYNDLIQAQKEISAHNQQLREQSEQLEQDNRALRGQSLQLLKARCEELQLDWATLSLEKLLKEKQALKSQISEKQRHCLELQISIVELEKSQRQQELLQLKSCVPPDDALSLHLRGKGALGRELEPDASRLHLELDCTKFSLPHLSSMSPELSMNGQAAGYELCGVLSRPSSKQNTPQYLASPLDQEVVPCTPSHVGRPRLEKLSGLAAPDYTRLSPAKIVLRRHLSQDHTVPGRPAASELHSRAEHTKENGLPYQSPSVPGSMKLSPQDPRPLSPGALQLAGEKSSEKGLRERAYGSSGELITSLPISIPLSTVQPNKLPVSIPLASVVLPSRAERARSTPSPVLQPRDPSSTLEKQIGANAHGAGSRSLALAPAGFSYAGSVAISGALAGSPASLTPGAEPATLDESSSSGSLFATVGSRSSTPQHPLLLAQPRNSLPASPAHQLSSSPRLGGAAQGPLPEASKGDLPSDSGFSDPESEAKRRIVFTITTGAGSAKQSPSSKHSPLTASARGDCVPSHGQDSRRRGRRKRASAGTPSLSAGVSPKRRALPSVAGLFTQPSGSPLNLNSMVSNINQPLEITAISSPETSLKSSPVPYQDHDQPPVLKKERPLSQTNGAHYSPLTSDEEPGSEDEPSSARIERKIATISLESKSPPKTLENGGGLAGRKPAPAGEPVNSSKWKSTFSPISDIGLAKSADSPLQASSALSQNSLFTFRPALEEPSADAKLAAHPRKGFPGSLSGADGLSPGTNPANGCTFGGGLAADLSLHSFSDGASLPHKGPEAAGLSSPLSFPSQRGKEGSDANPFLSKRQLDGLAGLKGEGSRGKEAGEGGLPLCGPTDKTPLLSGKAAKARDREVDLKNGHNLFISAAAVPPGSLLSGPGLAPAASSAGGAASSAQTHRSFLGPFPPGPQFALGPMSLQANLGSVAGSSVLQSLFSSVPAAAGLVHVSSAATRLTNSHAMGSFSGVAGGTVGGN

SRSF protein kinase 1, sequence (Q96SB4 whole entry): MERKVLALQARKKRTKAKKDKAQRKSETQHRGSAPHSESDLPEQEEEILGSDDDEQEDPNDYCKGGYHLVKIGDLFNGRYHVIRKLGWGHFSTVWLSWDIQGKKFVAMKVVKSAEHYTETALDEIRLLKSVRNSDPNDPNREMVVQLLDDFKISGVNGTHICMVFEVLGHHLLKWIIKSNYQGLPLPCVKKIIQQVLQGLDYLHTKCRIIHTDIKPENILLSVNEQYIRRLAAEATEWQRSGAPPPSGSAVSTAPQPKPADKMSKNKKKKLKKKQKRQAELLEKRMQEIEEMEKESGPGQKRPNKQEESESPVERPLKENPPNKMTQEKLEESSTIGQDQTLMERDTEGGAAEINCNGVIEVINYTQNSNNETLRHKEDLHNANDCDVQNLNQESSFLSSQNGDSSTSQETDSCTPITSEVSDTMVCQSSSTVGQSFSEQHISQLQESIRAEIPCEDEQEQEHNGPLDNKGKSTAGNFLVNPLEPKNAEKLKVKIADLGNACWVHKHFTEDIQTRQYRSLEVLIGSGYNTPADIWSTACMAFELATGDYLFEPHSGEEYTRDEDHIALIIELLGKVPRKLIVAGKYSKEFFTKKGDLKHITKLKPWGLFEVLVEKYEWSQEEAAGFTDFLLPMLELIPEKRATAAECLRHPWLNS
Ribosomal protein S6 kinase alpha-5 (Homo sapiens), sequence (O75582 whole entry, looked up): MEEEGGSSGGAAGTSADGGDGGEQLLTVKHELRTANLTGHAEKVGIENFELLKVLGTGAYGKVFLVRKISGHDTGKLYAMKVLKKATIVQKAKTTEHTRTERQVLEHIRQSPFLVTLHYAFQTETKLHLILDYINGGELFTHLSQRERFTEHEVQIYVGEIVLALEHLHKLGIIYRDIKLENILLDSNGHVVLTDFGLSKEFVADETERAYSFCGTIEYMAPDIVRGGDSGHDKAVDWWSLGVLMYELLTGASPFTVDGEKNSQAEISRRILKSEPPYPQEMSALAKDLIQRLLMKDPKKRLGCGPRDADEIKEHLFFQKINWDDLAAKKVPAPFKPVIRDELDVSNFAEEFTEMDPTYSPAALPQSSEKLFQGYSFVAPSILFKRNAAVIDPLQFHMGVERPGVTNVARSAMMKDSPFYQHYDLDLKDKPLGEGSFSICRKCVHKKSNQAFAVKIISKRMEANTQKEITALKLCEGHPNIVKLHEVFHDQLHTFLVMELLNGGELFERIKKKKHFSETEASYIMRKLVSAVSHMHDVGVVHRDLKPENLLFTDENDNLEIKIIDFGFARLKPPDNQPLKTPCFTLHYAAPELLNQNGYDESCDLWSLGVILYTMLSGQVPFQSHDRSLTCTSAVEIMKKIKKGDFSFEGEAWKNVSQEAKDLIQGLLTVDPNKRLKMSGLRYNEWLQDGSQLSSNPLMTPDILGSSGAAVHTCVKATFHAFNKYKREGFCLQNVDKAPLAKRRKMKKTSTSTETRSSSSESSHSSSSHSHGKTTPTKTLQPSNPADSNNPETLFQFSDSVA

Cc1cc([C@@H](C)Nc2ccccc2C(=O)O)c2nc(N3CCOCC3)cc(=O)n2c1 [AZD-6482] showed a % of control [1] of 100%.

In the case of CC(=O)Nc1cccc(-n2c(=O)n(C3CC3)c(=O)c3c(Nc4ccc(I)cc4F)n(C)c(=O)c(C)c32)c1, the % of control [2] is reported as 111%.

CC[C@@H]1[C@H](F)C(=O)N[C@@H]1COc1nccc2cc(C(N)=O)c(OC)cc12 [ZIMLOVISERTIB] showed a % of inhibition [3] of 9.2%.

Cn1cc(-n2cnc3c(NCc4nc5cc(Cl)c(Cl)cc5[nH]4)nc(N4CCOCC4)nc32)cn1 showed a % of inhibition [4] of 18.6%.

Work on Cc1cc(F)c(C(=O)Nc2cccc(-c3nncn3C(C)C)n2)cc1-n1cnc(C2CC2)c1 yielded a % of control [5] of 94%.

In the case of COCC(=O)NC/C=C/c1ccc2ncnc(Nc3ccc(Oc4ccc(C)nc4)c(C)c3)c2c1 [CP-724714], the % of control [6] is reported as 100%.

COc1cc(N(C)c2ccnc3ccc(C(F)(F)F)cc23)cc(OC)c1OC showed a % binding [7] of 100% and a % binding [8] of 100%.

Work on CCC(=O)N1CCN(c2ccc(-n3c(=O)ccc4cnc5ccc(-c6cnc7ccccc7c6)cc5c43)cc2C(F)(F)F)CC1 yielded a % of control [9] of 65%.

CC[C@@H](Nc1c(C#N)c(-c2ccc(-c3cccc(C)c3F)cc2)nc2cnccc12)C(=O)O [BAY-091] gave a % of inhibition [10] of 22.3%.

Compound CN(C)CCCOc1ccc(-c2cc(NCCCn3cccn3)nc(S(C)(=O)=O)n2)cc1 has a dTM [11] of under 2 K.

For N#Cc1cccc(-c2c[nH]c3ncnc(N4CCOCC4)c23)c1, the % of control [12] was 100%.

For O[C@H]1CC[C@H](Nc2ncc3nc(Nc4c(F)cc(F)cc4F)n([C@H]4CCOC4)c3n2)CC1, the % of control [13] was 100%.

COCCN1CCC(c2cc(CN(C)C(=O)c3cccc(Oc4ccccc4)c3)ccn2)CC1 showed a % activity ([14]; at 1 µM) of over 95% and a % activity ([14]; at 10 µM) of over 90%.
